Measurements published in patent US10196363B2, “Dihydropyrimidin-2-one compounds and medical use thereof” (JAPAN TOBACCO INC., priority 2014, dated 2019).
Where two headings read alike, the source gives them in different places.

How the values were obtained:
[1] = biological target: T1, human RORγ (Homo sapiens, UniProt P51449); test: In vitro assay of inhibitory effect against RORγ transcriptional activity (GAL4-hRORγ LBD luciferase reporter gene assay in CHO cells); type: cell-based; details: for hRORγ luciferase activity, %-of-control: vehicle-control 0.2% DMSO alone = 100%
T1 construct: human RORγ, from Ser253 to Lys518; expressed in transfected cells; host or cells: CHO cells (Chinese hamster ovary), transient co-transfection with pG5-Luc
T1 sequence (P51449 253-518): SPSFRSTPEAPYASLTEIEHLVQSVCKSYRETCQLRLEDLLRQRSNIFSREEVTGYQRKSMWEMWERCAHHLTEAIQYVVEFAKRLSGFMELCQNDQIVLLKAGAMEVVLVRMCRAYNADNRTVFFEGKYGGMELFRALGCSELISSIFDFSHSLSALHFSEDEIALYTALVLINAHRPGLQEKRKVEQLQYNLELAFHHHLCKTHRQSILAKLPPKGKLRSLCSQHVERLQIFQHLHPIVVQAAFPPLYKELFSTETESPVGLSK
Procedure, shortened: (§1)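 Luciferase signal, expressed relative to 0.2% DMSO vehicle as 100%, was the read-out after a 2-day compound exposure of CHO cells co-expressing a GAL4-RORγ LBD fusion and a GAL4-responsive reporter. EC50 values came from curve fitting, omitting points showing cytotoxicity.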

[2] = biological target: T2, mouse RORγ (Mus musculus, UniProt P51450); test: In vitro assay of inhibitory effect against RORγ transcriptional activity (GAL4-mRORγ LBD luciferase reporter gene assay in CHO cells); type: cell-based; details: for mRORγ luciferase activity, %-of-control: vehicle-control 0.2% DMSO alone = 100%
T2 construct: mouse RORγ, from Ile251 to Lys516; expressed in transfected cells; host or cells: CHO cells (Chinese hamster ovary), transient co-transfection with pG5-Luc
T2 sequence (P51450 251-516): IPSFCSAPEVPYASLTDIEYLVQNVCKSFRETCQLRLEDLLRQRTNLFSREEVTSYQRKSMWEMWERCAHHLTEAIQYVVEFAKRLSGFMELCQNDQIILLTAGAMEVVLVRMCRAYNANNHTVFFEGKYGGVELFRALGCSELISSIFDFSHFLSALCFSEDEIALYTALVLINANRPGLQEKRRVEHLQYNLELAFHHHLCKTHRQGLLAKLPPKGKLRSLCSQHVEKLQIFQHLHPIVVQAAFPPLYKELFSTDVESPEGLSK
Procedure, shortened: as §1

[3] = GAL4-hRORγ LBD luciferase reporter, CHO cells, read-out: LUC EC50 hRORγ
[4] = GAL4-mRORγ LBD luciferase reporter, CHO cells, read-out: LUC EC50 mRORγ
[5] = value in parentheses beside the EC50 bound
[6] = GAL4-hRORγ LBD / pG5-Luc in CHO cells, 2 days incubation
[7] = value in parentheses beside the > EC50 bound
[8] = GAL4-mRORγ LBD / pG5-Luc in CHO cells, 2 days incubation

SMILES | EC50 [1, 3] [nM] | EC50 [2, 4] [nM] | EC50 [1, 6] [nM] | EC50 [2, 8] [nM] | other results
CC(C)C1=CN(CCC(=O)O)C(=O)N[C@@]1(C)c1ccc(CC2CCOCC2)c(Cl)c1 [Example 290] | 463 | 259 |  |  | 
CC(C)C1=CN(CCC(=O)O)C(=O)N[C@@]1(C)c1ccc(CCC(C)(C)C(=O)O)c(Cl)c1 [Example 261] | > 20000 | > 20000 |  |  | hRORγ luciferase activity, %-of-control [1, 5]: (90%); mRORγ luciferase activity, %-of-control [2, 5]: (100%)
CC(C)(C)COc1ccc(C2NC(=O)NC=C2C(C)(C)C(=O)O)cc1Cl (racemic) [Example 2] |  |  | > 20000 | 13100 | hRORγ luciferase activity, %-of-control [1, 7]: (55%)
COCCC1=CN(CCC(=O)O)C(=O)N[C@@]1(C)c1ccc(C2=CCC(C)(C)CC2)c(Cl)c1 [Example 331] | 14 | 8 |  |  | 
CC(C)C1=CN(c2cc(C(=O)O)on2)C(=O)N[C@@]1(C)c1ccc(CCC(C)(C)C)c(Cl)c1 [Example 295] | 134 | 366 |  |  | 
CC(C)(C)CCc1ccc([C@]2(C)NC(=O)N([C@H]3C[C@H](C(=O)O)C3)C=C2C2CCOCC2)cc1Cl [Example 100] |  |  | 20 | 35 | 
CC(C)(C)CCc1ccc(C2(C)NC(=O)N([C@H]3C[C@H](CO)C3)C=C2C(C)(C)CCC(=O)O)cc1Cl (single isomer, unassigned) [Example 182] |  |  | 27 | 76 | 
CC(C)C1=CN(CCC(=O)O)C(=O)N[C@]1(C)c1ccc(C2CCCC2)c(Cl)c1 [Example 155] |  |  | > 8000 | > 8000 | hRORγ luciferase activity, %-of-control [1, 7]: (83%); mRORγ luciferase activity, %-of-control [2, 7]: (81%)
COCCC(C)(C)CC1=CN(c2ccc(C(=O)O)cc2)C(=O)N[C@@]1(C)c1ccc(CCC(C)(C)C)c(Cl)c1 [Example 209] | 51 | 74 |  |  | 
CC(C)(C)CCc1ccc([C@]2(C)NC(=O)N(CCC(=O)O)C=C2C2CC(C)(C)OC(C)(C)C2)cc1Cl [Example 284] | 2780 | 1500 |  |  | 
COCCC1=CN([C@H]2CC[C@H](C(=O)O)CC2)C(=O)N[C@@]1(C)c1ccc(CCC(C)(C)C)c(C(F)(F)F)c1 [Example 325] | 174 | 60 |  |  | 
CC(C)(C)C1=CN(CCCC(=O)O)C(=O)NC1c1ccc(OCCC2CCCCC2)c(Cl)c1 (racemic) [Example 3] |  |  | 182 | 61 | 
CC(C)C1=CN(CCC(=O)O)C(=O)N[C@@]1(C)c1ccc([S+]([O-])C2CCCC2)c(Cl)c1 (mixture of isomers) [Example 223] | > 20000 | > 20000 |  |  | hRORγ luciferase activity, %-of-control [1, 5]: (78%); mRORγ luciferase activity, %-of-control [2, 5]: (70%)
CC(C)(C)COc1ccc(C2NC(=O)N(CCCC(=O)O)C=C2C(C)(C)C)cc1Cl (single isomer, unassigned) [Example 6] |  |  | > 8000 | > 8000 | hRORγ luciferase activity, %-of-control [1, 7]: (76%); mRORγ luciferase activity, %-of-control [2, 7]: (75%)
CC(C)C1=CN(c2ccc(C(=O)O)cc2F)C(=O)N[C@@]1(C)c1ccc(CCC(C)(C)C)c(Cl)c1 [Example 207] | 9 | 18 |  |  | 
CC(C)C1=CN([C@H]2CC[C@@H](C(=O)O)CC2)C(=O)NC1(C)c1ccc(CCC(C)(C)C)c(Cl)c1 (mixture of isomers) [Example 30] |  |  | 60 | 47 | 
CC(C)(C)CCc1ccc([C@]2(C)NC(=O)N(CCC(=O)O)C=C2c2ccccc2)cc1Cl [Example 265] | 37 | 71 |  |  | 
CC(C)(C)CCc1ccc([C@@]2(C)NC(=O)N([C@H]3C[C@H](C(=O)O)C3)C=C2C2CC(F)(F)C2)cc1Cl [Example 95] |  |  | > 3200 | 5680 | hRORγ luciferase activity, %-of-control [1, 7]: (66%)
CC(C)C1=CN([C@H]2C[C@H](C(=O)O)C2)C(=O)NC1(C)c1ccc(OCC(C)(C)C)c(Cl)c1 (mixture of isomers) [Example 17] |  |  | 206 | 153 | 
CC(C)C1=CN(CC(C)(C)CC(=O)O)C(=O)N[C@@]1(C)c1ccc(CCC(C)(C)C)c(Cl)c1 [Example 36] |  |  | 21 | 24 | 
